The results in this text go back to patent US20250136593A1, “DEGRADATION AGENT AND USE THEREOF” (HITGEN INC., priority 2021, published 2025).

The target in assay [1] is ternary complex between BCL-XL and CRBN-DDB1 (Homo sapiens, UniProt Q07817+Q96SW2). Kind of assay: Compound-induced formation of ternary complex between BCL-XL and CRBN-DDB1 by AlphaLISA. The arrangement: key: the number of + indicates the intensity of AlphaLISA peak signal; ++: the number of + indicates the intensity of AlphaLISA peak signal; +++: the number of + indicates the intensity of AlphaLISA peak signal; ++++: the number of + indicates the intensity of AlphaLISA peak signal; +++++: the number of + indicates the intensity of AlphaLISA peak signal. Particulars: peak signal; 60 nM Strep-BCL-XL and 60 nM His-CRBN/DDB1. Format: biochemical. How it is done: Experimental Example 4, Detection of Compound-Induced Formation of Ternary Complex Between BCL-XL and CRBN-DDB1 by AlphaLISA Method
Na2HPO4(Sigma), NaH2PO4(Sigma), sodium chloride (Sigma), Tween-20 (Sigma), AlphaLISA®Nikel Chelate Acceptor beads (PerkinElmer), Strep-Tactin® Alpha Donor beads (PerkinElmer), Assay plate (Corning), Strep-BCl-XL (HitGen), His-CRBN/DDB1 (HitGen).
DMSO was used to dissolve the dry powder of the test compound to obtain a 10.00 mM solution. The instrument ECHO was used to perform gradient dilution of the compound, which was then added to a 384-well reaction plate (Corning, Cat #3824), so that the final concentration of DMSO in the entire reaction system (10.0 μL) was less than 1%, and the same amount of DMSO was added and used as a control.
Strep-BCl-XL and His-CRBN/DDB1 proteins were dissolved in buffer (10 mM NaH2PO4, 40 mM Na2HPO4, 150 mM sodium chloride, 0.03% Tween20, pH=7.4) to obtain a protein mixture of 60 nM Strep-BCL-XL and 60 nM His-CRBN/DDB1, the protein mixture (5ul/well) was added to the 384-well plate in which the compound had been added, and incubated at room temperature for 30 minutes, then 5 μl of a detection mixture with 50 μg/ml AlphaLISA®Nikel Chelate Acceptor beads and 50 μg/ml Strep-Tactin® Alpha Donor beads was added, and incubated at room temperature for 2 hours; and then a microplate reader was used to detect AlphaLISA signal.
Fifth order polynomial or Sixth order polynomial in Polynomial of Graphpad 6.0 was used for data fitting.

Assay [2] concerns MOLT-4 cells. In words: Inhibitory activity on MOLT4 cell proliferation by Cell Titer-Glo method. The assay is classed as cell-based. Particulars: Homo sapiens, 72 hours incubation, read-out: IC50 concentration for inhibiting MOLT-4 cells. How it is done: Experimental Example 5, Evaluation Experiment of Inhibitory Activity of Compound on MOLT4 Cell Proliferation by Cell Titer-Glo Method
RPMI medium modified (Hyclone), FBS (Corning), Dimethyl Sulfoxide, P/S, CellTiter-Gbo Luminescent Cell Viability Assay (Promega), MOLT-4 cell (ATCC).
MOLT-4 cells were cultured in monolayer in vitro in an incubator containing 5% CO2 air at 37° C. The culture medium was RPMI 1640 with 10% FBS and 1% P/S. 15 μL of MOLT4 cells, containing 5×10^4 cells per ml, was inoculated to a 384-well plate (Corning, 3707), 750 cells/well, and incubated at 37° C. and 5% CO2 for 30 minutes. Then the compound that had been diluted in advance was added, with a total of 9 concentration points, and 2 parallel repetitions for each concentration point. The cell growing group without adding the compound was used as a negative control (maximum signal control), and the culture medium group was used as a blank control (minimum signal control). At the same time, it was ensured that the final DMSO content in each reaction well was 0.1%. The compound and the cells were incubated in a cell culture incubator at 37° C., 5% CO2 for 3 days (72 hours).
The 384-well plate was taken out from the cell culture incubator and allowed to stand at room temperature, equilibrated for 20 to 30 minutes, and then 25 μl of Cell Titer-Glo detection reagent was added to each reaction well, lysed on a shaker for 2 minutes, incubated for 10 minutes, and BMG PHERAStar (Luminescence) was used for reading.
The inhibition rate was calculated based on the luminescence signals: the average value of the negative control (maximum signal control) and the blank control (minimum signal control) was first calculated, then the inhibition rates of the compound at different concentrations for the cells were calculated as follows:
The IC50 of the compound to inhibit cell activity was calculated by fitting with GraphPad Prism 6 using log(inhibitor) vs. response−Variable slope mode. The fitting equation was: Y=Bottom+(Top−Bottom)/(1+10^((LogIC50−X)*HillSlope)), wherein Y represented the inhibition rate and X represented the known compound concentration after Log.

For assay [3], the target named is T1, BCL-XL protein in MOLT-4 cells (Homo sapiens, UniProt Q07817).
T1 construct: host or cells: MOLT-4
In words: Degradation effect on BCL-XL protein in MOLT-4 cells by Western Blot. The assay is classed as cell-based. Particulars: 24 hours incubation, corrected by β-actin, read-out: DC50 concentration for BCL-XL protein degradation. The protocol: Experimental Example 6. Experiment to Evaluate Degradation Effect of Compound on BCL-XL Protein in MOLT-4 Cells by Western Blot Method
SDS-PAGE gel (4-12%) (Genscript), PMSF 100 mM (Biyotime), Cocktail 100× (Biyotime), P/S, RPMI medium modified (Hyclone), FBS (Corning), 4× loading buffer (Thermo), Bcl-xL (54H6) Rabbit mAb (CST), Anti-rabbit IgG-HRP (CST), Anti-β-actin-HRP (Abcam), RIPA (Biyotime), Tween-20, MOLT-4 cell (ATCC), BCA Protein Assay Kit (TIANGEN), Immobilon Western Chemilunescent HRP Substrate (Millipore).
1) Incubation of compound and cells: 1 mL of 10^6 MOLT-4 cells (culture medium: 89% RPMI, 10% FBS, 1% P/S) was inoculated in a 6-well cell culture plate, the compound was subjected to gradient dilution with DMSO, then the compound diluted in DMSO in gradient was diluted again into the MOLT-4 medium, and 1 mL of the diluted compound was directly added to the 6-well plate with the cultured cells and incubated for 24 hours.
2) Protein extraction: After the compound and the cells were co-incubated for 24 hours, the cells were collected and placed in a 1.5 mL centrifuge tube, washed twice with ice-cold PBS, the supernatant was discarded, then 150 μL of RIPA lysis buffer was added and lysis was carried out on ice for 30 minutes; then the cell lysate was centrifuged in a low-temperature centrifuge at 15,000 rpm for 10 minutes, and the supernatant was collected; and BCA Protein Assay Kit was used to quantify the protein in the resulting cell lysate supernatant. 4× loading buffer was added to the cell lysate supernatant and incubated at 85° C. for 10 minutes to obtain a sample. The obtained sample was stored in −80° C. refrigerator for the use on the next day. 20 μg of the sample was taken to perform SDS-Page and transmembrane, 5% skim milk was used to block the membrane for 1 hour, and then Bcl-xL (54H6) rabbit mAb, Anti-rabbit IgG-HRP, Anti-β-actin-HRP were used for incubation. After incubation, Immobilon Western Chemiluminescent HRP Substrate was used for color development, and a gel analyzer was used for analysis.
Analysis was performed with a grayscale analysis software, the amount of BCL-XL protein was corrected by the amount of β-actin, and then Graphpad 6 was used to calculate DC50.

T1 sequence (Q07817 whole entry): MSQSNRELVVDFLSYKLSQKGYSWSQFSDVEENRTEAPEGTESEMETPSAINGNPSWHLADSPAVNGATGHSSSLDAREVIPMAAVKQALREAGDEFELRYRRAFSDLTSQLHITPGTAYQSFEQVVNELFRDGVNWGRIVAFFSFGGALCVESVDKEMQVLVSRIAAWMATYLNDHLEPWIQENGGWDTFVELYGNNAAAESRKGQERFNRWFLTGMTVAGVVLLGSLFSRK
Sequence of ternary complex between BCL-XL and CRBN-DDB1 (Q07817 whole entry): as above
Sequence of ternary complex between BCL-XL and CRBN-DDB1 (Q96SW2 whole entry): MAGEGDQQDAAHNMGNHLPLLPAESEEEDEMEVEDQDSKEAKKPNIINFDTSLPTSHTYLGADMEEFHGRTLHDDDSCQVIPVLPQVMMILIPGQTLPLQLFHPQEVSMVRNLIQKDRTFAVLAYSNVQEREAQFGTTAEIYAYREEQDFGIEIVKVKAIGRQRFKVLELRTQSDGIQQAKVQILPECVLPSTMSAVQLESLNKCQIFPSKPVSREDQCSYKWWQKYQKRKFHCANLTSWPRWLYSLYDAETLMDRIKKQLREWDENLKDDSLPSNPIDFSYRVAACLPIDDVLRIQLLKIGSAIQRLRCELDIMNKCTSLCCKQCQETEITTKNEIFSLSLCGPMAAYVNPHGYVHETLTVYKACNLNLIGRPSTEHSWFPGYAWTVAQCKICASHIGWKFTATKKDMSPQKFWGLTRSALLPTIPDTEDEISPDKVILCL
Sequence of ternary complex between BCL-XL and CRBN-DDB1 (Q16531 whole entry partner): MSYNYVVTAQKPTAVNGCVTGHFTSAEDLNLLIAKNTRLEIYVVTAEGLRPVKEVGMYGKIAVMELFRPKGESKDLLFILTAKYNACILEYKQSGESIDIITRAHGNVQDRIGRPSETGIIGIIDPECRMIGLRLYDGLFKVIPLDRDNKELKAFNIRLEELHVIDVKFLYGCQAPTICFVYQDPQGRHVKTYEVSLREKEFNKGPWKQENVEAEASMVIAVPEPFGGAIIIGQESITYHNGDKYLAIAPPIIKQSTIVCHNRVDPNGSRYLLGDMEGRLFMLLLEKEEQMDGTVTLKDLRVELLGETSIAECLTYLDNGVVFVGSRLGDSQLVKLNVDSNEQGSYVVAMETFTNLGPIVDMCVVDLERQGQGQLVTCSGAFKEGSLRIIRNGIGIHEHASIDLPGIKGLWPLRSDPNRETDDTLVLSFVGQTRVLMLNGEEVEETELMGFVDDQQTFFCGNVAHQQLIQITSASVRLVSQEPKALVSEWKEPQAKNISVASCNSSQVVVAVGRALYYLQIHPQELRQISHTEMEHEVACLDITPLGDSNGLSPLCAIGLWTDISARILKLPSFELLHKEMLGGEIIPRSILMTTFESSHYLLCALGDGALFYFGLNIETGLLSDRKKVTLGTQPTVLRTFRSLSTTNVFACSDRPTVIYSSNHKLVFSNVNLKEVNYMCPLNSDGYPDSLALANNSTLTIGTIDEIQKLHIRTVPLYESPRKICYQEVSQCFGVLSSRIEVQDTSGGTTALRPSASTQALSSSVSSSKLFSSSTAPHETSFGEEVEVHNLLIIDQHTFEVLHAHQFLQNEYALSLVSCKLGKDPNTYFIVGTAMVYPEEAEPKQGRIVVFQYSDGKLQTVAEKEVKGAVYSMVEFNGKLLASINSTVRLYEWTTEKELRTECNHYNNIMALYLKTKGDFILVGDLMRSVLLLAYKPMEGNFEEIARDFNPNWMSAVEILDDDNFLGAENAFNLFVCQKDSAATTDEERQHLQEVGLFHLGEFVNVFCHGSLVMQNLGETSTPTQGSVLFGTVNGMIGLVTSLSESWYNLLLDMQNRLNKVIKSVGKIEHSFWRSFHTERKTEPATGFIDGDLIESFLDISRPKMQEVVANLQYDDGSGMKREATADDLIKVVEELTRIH

As for `C=Cc1cc(-c2nc3c(c(NC)n2)CCN(C(=O)c2ccc(/C=C/c4ccc(C#CCN5CCN(CCCCCOc6cccc7c6C(=O)N(C6CCC(=O)NC6=O)C7=O)CC5)cc4)cc2)C3)cnc1C=C` (stereo not drawn) [Compound C3-6], the “AlphaLISA signal (PROTAC ternary complex signal intensity)” value (“AlphaLISA signal” for short) in assay [1] was “+”. The IC50 in assay [2] fell in the range of 50 to 100 µM.

For the compound `C=Cc1cc(-c2nc3c(c(NC)n2)CCN(C(=O)c2ccc(COc4ccc(C#CCN5CCN(CCCCCOc6cccc7c6C(=O)N(C6CCC(=O)NC6=O)C7=O)CC5)cc4)cc2)C3)cnc1C=C` (stereo not drawn) [Compound C3-16], the “AlphaLISA signal” value in assay [1] is reported as “++++”. For the same compound, the IC50 in assay [2] is 50 to 100 µM.

As to `C=Cc1cc(-c2nc3c(c(NC)n2)CCN(C(=O)c2ccc(COc4ccc(C#CCN5CCN(CCCCCCOc6cccc7c6C(=O)N(C6CCC(=O)NC6=O)C7=O)CC5)cc4)cc2)C3)cnc1C=C` (stereo not drawn) [Compound C3-17], the “AlphaLISA signal” value in assay [1] is on record as “++++”. The IC50 in assay [2] was in the range of 50 to 100 µM.

With `O=C1CCC(N2Cc3c(C#CCCCN4CCN(CC#Cc5ccc(/C=C/c6ccc(C(=O)N7CCc8cnc(-c9cnc%10ccccc%10c9)nc8C7)cc6)cc5)CC4)cccc3C2=O)C(=O)N1` (stereo not drawn) [Compound D2-4], the “AlphaLISA signal” value in assay [1] was “+”. Also, the IC50 in assay [2] fell in the range of 100 to 200 µM.

As to `CNc1nc(-c2cnc3ccccc3c2)nc2c1CCN(C(=O)c1ccc(/C=C/c3ccc(C#CCN4CCN(CCCC#Cc5cccc6c5CN(C5CCC(=O)NC5=O)C6=O)CC4)cc3)cc1)C2` (stereo not drawn) [Compound D2-6], the “AlphaLISA signal” value in assay [1] is recorded as “++”. In assay [2], the IC50 is 100 to 200 µM.

As for `CNc1nc(-c2cnc3ccccc3c2)nc2c1CCN(C(=O)c1ccc(/C=C/c3ccc(C#CCN4CCN(CCC#Cc5cccc(C6CCC(=O)NC6=O)c5)CC4)cc3)cc1)C2` (stereo not drawn) [Compound D2-15], in assay [3], the DC50 is 1 to 10 µM. Further, the IC50 in assay [2] was less than 1 µM.

As for `C=Cc1cc(-c2ncc3c(n2)CN(C(=O)c2ccc(/C=C/c4ccc(C#CCN5CCN(C6CCN(CC#Cc7cccc8c7CN(C7CCC(=O)NC7=O)C8=O)CC6)CC5)cc4)cc2)CC3)cnc1C=C` (stereo not drawn) [Compound E1-2], the “AlphaLISA signal” value in assay [1] is listed as “++”. In assay [2], the IC50 lay in the range of 50 to 100 µM.

`O=C1CCC(N2C(=O)c3ccc(N4CCN(CC5CCN(CC#Cc6ccc(/C=C/c7ccc(C(=O)N8CCc9cnc(-c%10cnc%11ccccc%11c%10)nc9C8)cc7)cc6)CC5)CC4)cc3C2=O)C(=O)N1` (stereo not drawn) [Compound F1B-2]: the DC50 in assay [3] is 50 to 100 µM. For the same compound, the “AlphaLISA signal” value in assay [1] was “+”. For the same compound, the IC50 in assay [2] was 50 to 100 µM.

`CNc1nc(-c2cnc3ccccc3c2)nc2c1CCN(C(=O)c1ccc(/C=C/c3ccc(C#CCN4CCC(CN5CCN(c6cc7c(cc6F)C(=O)N(C6CCC(=O)NC6=O)C7=O)CC5)CC4)cc3)cc1)C2` (stereo not drawn) [Compound F1B-3]: the DC50 in assay [3] is 1 to 10 µM. Further, the IC50 in assay [2] lay in the range of 50 to 100 µM.

For the compound `O=C1CCC(N2Cc3cc(N4CCC(CN5CCN(CC#Cc6ccc(/C=C/c7ccc(C(=O)N8CCc9cnc(-c%10cnc%11ccccc%11c%10)nc9C8)cc7)cc6)CC5)CC4)ccc3C2=O)C(=O)N1` (stereo not drawn) [Compound F2-4], in assay [3], the DC50 was in the range of 1 to 10 µM. In addition, in assay [1], the “AlphaLISA signal” value was “++”. Also, the IC50 in assay [2] is 1 to 10 µM.

Consider `CNc1nc(-c2cnc3ccccc3c2)nc2c1CCN(C(=O)c1ccc(/C=C/c3ccc(C#CCN4CCN(CC5CCN(c6ccc7c(c6)CN(C6CCC(=O)NC6=O)C7=O)CC5)CC4)cc3)cc1)C2` (stereo not drawn) [Compound F2-8], for which the DC50 in assay [3] was less than 1 µM. Also, the IC50 in assay [2] lay in the range of 1 to 10 µM.

Consider `O=C1CCC(N2Cc3cc(N4CCC(CN5CCN(CC#Cc6ccc(OCC78CC(C(=O)N9CCc%10cnc(-c%11cnc%12ccccc%12c%11)nc%10C9)(C7)C8)cc6)CC5)CC4)ccc3C2=O)C(=O)N1` (stereo not drawn) [Compound F2-9], for which the DC50 in assay [3] lay in the range of 1 to 10 µM. The IC50 in assay [2] was in the range of 50 to 100 µM.

As to `CNc1nc(-c2cnc3ccccc3c2)nc2c1CCN(C(=O)c1ccc(/C=C/c3ccc(C#CCN4CCN(CC5CCN(c6ccc7c(c6)C(=O)N(C6CCC(=O)NC6=O)C7=O)CC5)CC4)cc3)cc1)C2` (stereo not drawn) [Compound F2-11], the DC50 in assay [3] lay within 1 to 10 µM. Further, in assay [2], the IC50 fell in the range of 50 to 100 µM.

With `O=C1CCC(N2Cc3c(OC4CC5(C4)CN(C4CCN(CC#Cc6ccc(/C=C/c7ccc(C(=O)N8CCc9cnc(-c%10cnc%11ccccc%11c%10)nc9C8)cc7)cc6)CC4)C5)cccc3C2=O)C(=O)N1` (stereo not drawn) [Compound F3B-2], the “AlphaLISA signal” value in assay [1] is given as “++”. Moreover, the IC50 in assay [2] lay in the range of 50 to 100 µM.

As to `CNc1nc(-c2cnc3ccccc3c2)nc2c1CCN(C(=O)c1ccc(/C=C/c3ccc(C#CCN4CCN(CCCCCC(=O)N[C@H](C(=O)N5C[C@H](O)C[C@H]5C(=O)NCc5ccc(-c6scnc6C)cc5)C(C)(C)C)CC4)cc3)cc1)C2` [Compound G1-5], in assay [1], the “AlphaLISA signal” value is “++”. In addition, the IC50 in assay [2] was greater than 200 µM.

As to `CNc1nc(-c2cnc3ccccc3c2)nc2c1CCN(C(=O)c1ccc(/C=C/c3ccc(C#CCN4CCN(C(=O)CC(=O)N[C@H](C(=O)N5C[C@H](O)C[C@H]5C(=O)N[C@@H](C)c5ccc(-c6scnc6C)cc5)C(C)(C)C)CC4)cc3)cc1)C2` [Compound G2-1], in assay [1], the “AlphaLISA signal” value is “++”. The IC50 in assay [2] is greater than 200 µM.

As to `CNc1nc(-c2cnc3ccccc3c2)nc2c1CCN(C(=O)c1ccc(/C=C/c3ccc(C#CCN4CCN(CCC#Cc5cccc(N6CCC(=O)NC6=O)c5)CC4)cc3)cc1)C2` [Compound H1-1], the DC50 in assay [3] was less than 1 µM. For the same compound, in assay [2], the IC50 is less than 1 µM.
